Holding throughout (assay): KinomeScan kinase panel, single concentration 10 µM
Common to all, as to format: binding

The target in assay [1] is T1, KinomeScan kinase panel (Homo sapiens, UniProt Q9Y2H1).
T1 construct: purchased DiscoveRx (KinomeScan)
The conditions noted are these: NDR2, 10 µM; read-out: score (%).

In assay [2] the target is T2, KinomeScan kinase panel (Homo sapiens, UniProt P53671).
T2 construct: purchased DiscoveRx (KinomeScan)
The settings on record: LIMK2, 10 µM; read-out: score (%).

For assay [3], the target named is T3, KinomeScan kinase panel (Homo sapiens, UniProt P33981).
T3 construct: purchased DiscoveRx (KinomeScan)
T3 sequence (P33981 1-857): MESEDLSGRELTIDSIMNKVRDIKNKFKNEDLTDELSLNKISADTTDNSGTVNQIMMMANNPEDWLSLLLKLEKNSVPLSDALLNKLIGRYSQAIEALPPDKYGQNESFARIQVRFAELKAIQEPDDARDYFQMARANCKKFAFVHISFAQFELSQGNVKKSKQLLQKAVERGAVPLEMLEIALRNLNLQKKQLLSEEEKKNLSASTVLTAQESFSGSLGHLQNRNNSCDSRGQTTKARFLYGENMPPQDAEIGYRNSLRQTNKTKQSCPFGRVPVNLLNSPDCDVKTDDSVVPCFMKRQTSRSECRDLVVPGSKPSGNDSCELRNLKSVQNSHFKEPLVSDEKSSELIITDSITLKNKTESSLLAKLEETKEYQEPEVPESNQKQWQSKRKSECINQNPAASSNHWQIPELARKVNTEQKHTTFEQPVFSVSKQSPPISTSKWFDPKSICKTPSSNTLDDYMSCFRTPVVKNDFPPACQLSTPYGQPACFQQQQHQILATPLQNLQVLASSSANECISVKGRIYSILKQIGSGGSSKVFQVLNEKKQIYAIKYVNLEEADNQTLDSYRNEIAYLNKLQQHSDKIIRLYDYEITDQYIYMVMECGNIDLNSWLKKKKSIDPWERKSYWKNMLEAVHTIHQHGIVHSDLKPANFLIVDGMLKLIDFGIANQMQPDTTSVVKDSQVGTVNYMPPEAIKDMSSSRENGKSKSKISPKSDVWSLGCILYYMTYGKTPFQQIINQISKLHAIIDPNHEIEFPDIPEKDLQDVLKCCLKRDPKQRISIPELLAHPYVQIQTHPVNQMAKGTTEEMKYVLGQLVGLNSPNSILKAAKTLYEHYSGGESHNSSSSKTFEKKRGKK
The settings on record: kinase TTK; 10 µM; read-out: score (%).

Assay [4] concerns the target T4, KinomeScan kinase panel (Homo sapiens, UniProt Q02750).
T4 construct: purchased DiscoveRx (KinomeScan)
The conditions noted are these: MEK1, 10 µM; read-out: score (%).

In assay [5] the target is T5, KinomeScan kinase panel (Homo sapiens, UniProt Q15418).
T5 construct: purchased DiscoveRx (KinomeScan)
The conditions noted are these: 10 µM, read-out: score (%).

In assay [6] the target is T6, KinomeScan kinase panel (Homo sapiens, UniProt P07332).
T6 construct: purchased DiscoveRx (KinomeScan)
The conditions noted are these: FES, 10 µM; read-out: score (%).

The target in assay [7] is T7, KinomeScan kinase panel (Homo sapiens, UniProt P53778).
T7 construct: purchased DiscoveRx (KinomeScan)
T7 sequence (P53778 1-367): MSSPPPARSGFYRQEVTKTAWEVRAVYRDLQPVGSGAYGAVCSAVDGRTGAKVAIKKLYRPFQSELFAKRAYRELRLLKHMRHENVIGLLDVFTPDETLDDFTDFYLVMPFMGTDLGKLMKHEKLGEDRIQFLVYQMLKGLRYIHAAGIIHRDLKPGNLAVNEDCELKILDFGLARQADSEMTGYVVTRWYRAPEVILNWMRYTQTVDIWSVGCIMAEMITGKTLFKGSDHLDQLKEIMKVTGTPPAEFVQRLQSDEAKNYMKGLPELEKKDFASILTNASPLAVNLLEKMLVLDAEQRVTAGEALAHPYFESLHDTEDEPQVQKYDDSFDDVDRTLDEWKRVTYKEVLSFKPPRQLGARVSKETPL
The conditions noted are these: p38-gamma, 10 µM; read-out: score (%).

The target of assay [8] is T8, KinomeScan kinase panel (Homo sapiens, UniProt P31152).
T8 construct: purchased DiscoveRx (KinomeScan)
The conditions noted are these: ERK4, 10 µM; read-out: score (%).

Assay [9] concerns the target T9, KinomeScan kinase panel (Homo sapiens, UniProt Q02779).
T9 construct: purchased DiscoveRx (KinomeScan)
The settings on record: MLK2, 10 µM; read-out: score (%).

Assay [10] addresses T10, KinomeScan kinase panel (Homo sapiens, UniProt O96017).
T10 construct: purchased DiscoveRx (KinomeScan)
The conditions noted are these: CHEK2, 10 µM; read-out: score (%).

In assay [11] the target is T11, KinomeScan kinase panel (Homo sapiens, UniProt O94921).
T11 construct: purchased DiscoveRx (KinomeScan)
The settings on record: PFTK1, 10 µM.

Assay [12] has as its target T12, KinomeScan kinase panel (Homo sapiens, UniProt Q8IWQ3).
T12 construct: purchased DiscoveRx (KinomeScan)
T12 sequence (Q8IWQ3 1-736): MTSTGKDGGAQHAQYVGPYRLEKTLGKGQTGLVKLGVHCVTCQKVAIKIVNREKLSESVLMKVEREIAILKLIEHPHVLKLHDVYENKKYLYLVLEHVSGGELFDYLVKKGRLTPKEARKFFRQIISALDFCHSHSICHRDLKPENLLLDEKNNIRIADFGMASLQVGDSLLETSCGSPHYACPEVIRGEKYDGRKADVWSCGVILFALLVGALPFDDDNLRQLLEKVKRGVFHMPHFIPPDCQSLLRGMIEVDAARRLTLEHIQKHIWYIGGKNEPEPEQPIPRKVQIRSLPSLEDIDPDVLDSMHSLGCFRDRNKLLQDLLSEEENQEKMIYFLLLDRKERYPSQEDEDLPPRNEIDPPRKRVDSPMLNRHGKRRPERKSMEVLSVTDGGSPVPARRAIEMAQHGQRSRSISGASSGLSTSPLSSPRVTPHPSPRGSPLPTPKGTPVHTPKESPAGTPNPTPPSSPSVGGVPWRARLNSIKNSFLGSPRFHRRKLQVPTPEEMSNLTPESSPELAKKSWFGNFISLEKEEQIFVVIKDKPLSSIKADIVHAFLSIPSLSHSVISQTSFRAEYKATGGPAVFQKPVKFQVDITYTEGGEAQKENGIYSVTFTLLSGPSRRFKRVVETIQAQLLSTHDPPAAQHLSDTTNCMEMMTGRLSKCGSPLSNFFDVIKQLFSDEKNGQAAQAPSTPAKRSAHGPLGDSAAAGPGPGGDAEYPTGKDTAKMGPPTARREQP
The conditions noted are these: BRSK2, 10 µM; read-out: score (%).

The target of assay [13] is T13, KinomeScan kinase panel (Homo sapiens, UniProt Q8N5S9).
T13 construct: purchased DiscoveRx (KinomeScan)
The settings on record: CAMKK1, 10 µM; read-out: score (%).

Assay [14] addresses T14, KinomeScan kinase panel (Homo sapiens, UniProt Q16620).
T14 construct: purchased DiscoveRx (KinomeScan)
The settings on record: 10 µM, read-out: score (%).

Structures are written as SMILES. Like-named read-outs stand apart in the source and are kept apart here.

T9 sequence (Q02779 whole entry): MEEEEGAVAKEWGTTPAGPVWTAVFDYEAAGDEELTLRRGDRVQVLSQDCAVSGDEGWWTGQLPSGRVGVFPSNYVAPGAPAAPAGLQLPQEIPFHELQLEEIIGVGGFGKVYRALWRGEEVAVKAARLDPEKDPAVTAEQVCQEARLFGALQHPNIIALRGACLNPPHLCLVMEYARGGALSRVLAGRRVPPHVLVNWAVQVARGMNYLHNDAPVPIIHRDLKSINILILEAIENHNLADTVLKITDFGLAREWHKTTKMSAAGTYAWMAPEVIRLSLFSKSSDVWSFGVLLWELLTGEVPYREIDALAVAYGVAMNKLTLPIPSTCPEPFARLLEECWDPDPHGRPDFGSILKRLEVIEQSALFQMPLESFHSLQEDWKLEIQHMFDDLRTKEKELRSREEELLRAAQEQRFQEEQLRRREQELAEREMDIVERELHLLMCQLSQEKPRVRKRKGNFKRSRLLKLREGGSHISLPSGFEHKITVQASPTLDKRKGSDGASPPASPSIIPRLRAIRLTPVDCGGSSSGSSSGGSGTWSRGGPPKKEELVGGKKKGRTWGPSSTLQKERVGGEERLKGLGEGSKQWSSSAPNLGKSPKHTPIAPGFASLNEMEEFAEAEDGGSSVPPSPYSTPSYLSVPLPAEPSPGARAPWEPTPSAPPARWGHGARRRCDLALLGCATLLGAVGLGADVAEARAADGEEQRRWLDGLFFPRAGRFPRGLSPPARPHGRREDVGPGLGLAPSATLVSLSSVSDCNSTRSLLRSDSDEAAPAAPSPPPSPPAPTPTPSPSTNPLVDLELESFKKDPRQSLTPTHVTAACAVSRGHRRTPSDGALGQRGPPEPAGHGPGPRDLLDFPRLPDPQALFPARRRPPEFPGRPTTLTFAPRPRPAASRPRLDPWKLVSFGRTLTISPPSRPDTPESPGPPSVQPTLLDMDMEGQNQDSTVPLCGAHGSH
T11 sequence (O94921 whole entry): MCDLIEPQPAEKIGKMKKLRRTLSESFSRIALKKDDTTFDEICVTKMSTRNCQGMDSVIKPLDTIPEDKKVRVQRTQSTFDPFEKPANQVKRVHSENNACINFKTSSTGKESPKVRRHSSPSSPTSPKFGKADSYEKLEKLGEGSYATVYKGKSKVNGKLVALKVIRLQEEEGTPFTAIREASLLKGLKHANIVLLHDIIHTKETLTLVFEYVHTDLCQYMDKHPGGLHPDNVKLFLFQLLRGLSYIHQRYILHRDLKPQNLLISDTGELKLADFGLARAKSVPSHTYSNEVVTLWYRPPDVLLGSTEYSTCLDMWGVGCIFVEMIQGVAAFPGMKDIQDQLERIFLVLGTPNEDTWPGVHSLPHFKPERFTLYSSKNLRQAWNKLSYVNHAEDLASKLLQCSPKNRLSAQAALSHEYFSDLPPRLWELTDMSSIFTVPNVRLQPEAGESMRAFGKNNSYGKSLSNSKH
T13 sequence (Q8N5S9 whole entry): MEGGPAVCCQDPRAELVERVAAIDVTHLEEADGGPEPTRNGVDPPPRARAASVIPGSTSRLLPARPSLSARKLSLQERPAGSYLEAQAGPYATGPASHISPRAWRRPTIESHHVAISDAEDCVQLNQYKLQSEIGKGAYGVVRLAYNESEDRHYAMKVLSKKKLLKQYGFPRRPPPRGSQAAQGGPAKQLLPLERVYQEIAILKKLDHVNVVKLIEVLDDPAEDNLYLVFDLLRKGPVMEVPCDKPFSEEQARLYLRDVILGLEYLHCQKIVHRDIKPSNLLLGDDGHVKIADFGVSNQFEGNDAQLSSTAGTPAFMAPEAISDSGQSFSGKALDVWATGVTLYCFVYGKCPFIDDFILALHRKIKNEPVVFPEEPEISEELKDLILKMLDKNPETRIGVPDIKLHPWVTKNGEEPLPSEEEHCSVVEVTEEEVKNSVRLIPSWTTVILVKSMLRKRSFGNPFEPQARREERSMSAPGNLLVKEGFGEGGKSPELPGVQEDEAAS
T14 sequence (Q16620 32-822): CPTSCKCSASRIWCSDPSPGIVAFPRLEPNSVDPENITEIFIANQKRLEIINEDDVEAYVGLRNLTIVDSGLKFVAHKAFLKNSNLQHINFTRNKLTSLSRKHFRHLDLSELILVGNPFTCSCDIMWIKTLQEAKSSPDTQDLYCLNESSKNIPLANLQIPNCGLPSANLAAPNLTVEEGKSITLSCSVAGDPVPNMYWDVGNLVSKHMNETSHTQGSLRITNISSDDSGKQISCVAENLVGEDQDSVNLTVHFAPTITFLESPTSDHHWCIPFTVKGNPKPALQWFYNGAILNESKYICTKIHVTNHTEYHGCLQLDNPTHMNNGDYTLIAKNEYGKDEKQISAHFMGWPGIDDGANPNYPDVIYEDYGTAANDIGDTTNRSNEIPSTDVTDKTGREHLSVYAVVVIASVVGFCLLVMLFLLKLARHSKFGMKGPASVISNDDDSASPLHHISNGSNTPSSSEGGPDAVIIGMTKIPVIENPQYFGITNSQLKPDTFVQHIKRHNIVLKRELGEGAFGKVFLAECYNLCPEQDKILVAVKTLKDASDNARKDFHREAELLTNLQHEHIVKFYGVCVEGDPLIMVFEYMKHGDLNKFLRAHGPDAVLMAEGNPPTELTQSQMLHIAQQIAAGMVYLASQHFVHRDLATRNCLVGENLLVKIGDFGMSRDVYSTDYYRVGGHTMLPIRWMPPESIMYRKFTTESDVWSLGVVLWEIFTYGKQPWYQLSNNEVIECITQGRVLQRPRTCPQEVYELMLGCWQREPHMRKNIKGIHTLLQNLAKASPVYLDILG
T1 sequence (Q9Y2H1 whole entry): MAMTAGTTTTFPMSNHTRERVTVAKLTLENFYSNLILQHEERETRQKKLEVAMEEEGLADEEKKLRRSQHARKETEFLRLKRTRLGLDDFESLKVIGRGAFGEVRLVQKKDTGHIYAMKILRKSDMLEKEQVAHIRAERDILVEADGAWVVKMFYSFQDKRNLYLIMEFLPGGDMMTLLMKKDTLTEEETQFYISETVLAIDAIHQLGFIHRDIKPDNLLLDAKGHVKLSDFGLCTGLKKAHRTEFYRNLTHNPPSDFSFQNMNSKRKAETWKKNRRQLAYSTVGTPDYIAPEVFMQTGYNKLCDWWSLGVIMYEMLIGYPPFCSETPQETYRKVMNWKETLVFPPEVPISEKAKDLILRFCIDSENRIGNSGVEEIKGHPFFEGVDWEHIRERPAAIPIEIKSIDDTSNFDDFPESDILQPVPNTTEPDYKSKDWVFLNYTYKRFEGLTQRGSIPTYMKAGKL
T2 sequence (P53671 whole entry): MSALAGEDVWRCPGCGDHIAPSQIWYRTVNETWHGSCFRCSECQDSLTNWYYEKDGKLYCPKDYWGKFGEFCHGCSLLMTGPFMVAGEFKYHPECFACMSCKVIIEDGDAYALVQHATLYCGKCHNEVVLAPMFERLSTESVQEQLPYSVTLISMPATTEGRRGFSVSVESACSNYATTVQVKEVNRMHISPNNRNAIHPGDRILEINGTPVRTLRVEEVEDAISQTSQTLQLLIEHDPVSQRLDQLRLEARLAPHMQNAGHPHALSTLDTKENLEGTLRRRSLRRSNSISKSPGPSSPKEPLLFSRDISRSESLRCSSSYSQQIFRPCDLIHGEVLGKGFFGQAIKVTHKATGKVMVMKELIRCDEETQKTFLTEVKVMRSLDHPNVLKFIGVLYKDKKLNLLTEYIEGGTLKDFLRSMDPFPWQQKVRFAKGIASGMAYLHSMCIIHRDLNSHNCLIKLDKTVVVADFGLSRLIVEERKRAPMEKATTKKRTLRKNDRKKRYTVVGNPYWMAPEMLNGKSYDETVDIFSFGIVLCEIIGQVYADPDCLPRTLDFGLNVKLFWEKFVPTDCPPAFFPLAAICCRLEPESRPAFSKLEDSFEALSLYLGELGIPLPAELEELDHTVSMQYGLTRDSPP
T4 sequence (Q02750 whole entry): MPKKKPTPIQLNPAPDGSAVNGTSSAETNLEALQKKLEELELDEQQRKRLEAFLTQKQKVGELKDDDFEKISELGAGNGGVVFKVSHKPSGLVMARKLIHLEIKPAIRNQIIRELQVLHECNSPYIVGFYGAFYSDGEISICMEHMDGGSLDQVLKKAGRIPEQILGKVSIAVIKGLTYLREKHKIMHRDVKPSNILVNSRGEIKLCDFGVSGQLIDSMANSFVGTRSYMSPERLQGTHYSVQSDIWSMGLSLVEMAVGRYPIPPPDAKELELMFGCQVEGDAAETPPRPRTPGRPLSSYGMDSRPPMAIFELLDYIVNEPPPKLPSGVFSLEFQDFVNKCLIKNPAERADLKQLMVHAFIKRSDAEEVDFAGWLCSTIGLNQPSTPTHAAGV
T5 sequence (Q15418 whole entry): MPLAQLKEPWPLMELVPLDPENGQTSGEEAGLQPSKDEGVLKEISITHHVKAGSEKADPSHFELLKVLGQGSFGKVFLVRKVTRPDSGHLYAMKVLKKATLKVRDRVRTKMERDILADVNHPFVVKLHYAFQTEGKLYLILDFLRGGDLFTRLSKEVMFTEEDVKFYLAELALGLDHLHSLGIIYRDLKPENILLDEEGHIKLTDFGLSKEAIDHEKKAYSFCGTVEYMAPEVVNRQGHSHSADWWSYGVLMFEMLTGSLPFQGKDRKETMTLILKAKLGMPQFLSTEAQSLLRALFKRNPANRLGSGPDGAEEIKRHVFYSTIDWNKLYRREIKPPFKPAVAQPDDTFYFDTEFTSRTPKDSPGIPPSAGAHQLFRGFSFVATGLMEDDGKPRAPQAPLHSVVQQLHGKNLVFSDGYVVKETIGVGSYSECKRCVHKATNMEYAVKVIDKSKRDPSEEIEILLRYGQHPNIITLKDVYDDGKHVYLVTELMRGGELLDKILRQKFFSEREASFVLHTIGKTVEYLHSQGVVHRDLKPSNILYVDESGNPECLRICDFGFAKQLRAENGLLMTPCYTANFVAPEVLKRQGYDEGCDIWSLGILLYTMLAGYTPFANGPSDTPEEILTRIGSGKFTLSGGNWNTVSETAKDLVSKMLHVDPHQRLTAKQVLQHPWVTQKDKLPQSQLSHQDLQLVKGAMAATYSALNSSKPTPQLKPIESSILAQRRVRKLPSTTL

On to `CCN1CCN(Cc2ccc(NC(=O)c3ccc(C)c(NC(=O)c4cncc(-c5cccs5)c4)c3)cc2C(F)(F)F)CC1` [ALW-II-41-27], for which the remaining binding at 10 µM on KinomeScan kinase panel [1] is 11%; at KinomeScan kinase panel [2], 31%; at KinomeScan kinase panel [3], greater than 30%; on KinomeScan kinase panel [4], greater than 30%; at KinomeScan kinase panel [5] (RPS6KA1(Kin.Dom.1-N-terminal)), greater than 30%; at KinomeScan kinase panel [5] (RPS6KA1(Kin.Dom.2-C-terminal)) it was greater than 30%. The remaining binding at 10 µM is 0.8% on KinomeScan kinase panel [6]; 3.6% at KinomeScan kinase panel [7]; greater than 30% at KinomeScan kinase panel [8]; greater than 30% on KinomeScan kinase panel [9]; greater than 30% on KinomeScan kinase panel [10]; greater than 30% on KinomeScan kinase panel [12]. Besides, the values for the remaining binding at 10 µM on KinomeScan kinase panel [13] and at KinomeScan kinase panel [14] (kinase TRKB) were 33% and 4%, respectively. The “score (%)” value at KinomeScan kinase panel [11] is “nb (Hits values higher than 30% were considered negative (no binding: nb))”.

Regarding `CCN1CCN(Cc2ccc(NC(=O)c3ccc(C)c(/C=C/c4cnc5[nH]ccc5c4Cl)c3)cc2C(F)(F)F)CC1` [HG-6-63-01, (E)-3-(2-(4-chloro-1H-pyrrolo[2,3-b]pyridin-5-yl)vinyl)-N-(4-((4-ethylpiperazin-1-yl)methyl)-3-(trifluoromethyl)phenyl)-4-methylbenzamide], the remaining binding at 10 µM on KinomeScan kinase panel [1] was greater than 30%; at KinomeScan kinase panel [2] it was 6.6%; at KinomeScan kinase panel [3] it was greater than 30%; at KinomeScan kinase panel [4], greater than 30%; at KinomeScan kinase panel [5] (RPS6KA1(Kin.Dom.1)), greater than 30%; at KinomeScan kinase panel [5] (RPS6KA1(Kin.Dom.2)), greater than 30%. Also, the remaining binding at 10 µM is 0.55% on KinomeScan kinase panel [6]; 13% at KinomeScan kinase panel [7]; greater than 30% at KinomeScan kinase panel [8]; 20% at KinomeScan kinase panel [9]; greater than 30% on KinomeScan kinase panel [10]; greater than 30% at KinomeScan kinase panel [12]. Further, the results for the remaining binding at 10 µM on KinomeScan kinase panel [13] and on KinomeScan kinase panel [14] (TRKB) were greater than 30% and 1.6%, respectively. The “score (%)” value on KinomeScan kinase panel [11] is listed as “nb (Hits values higher than 30% were considered negative (no binding: nb))”.

Take `CCN1CCN(Cc2ccc(NC(=O)c3ccc(C)c(C#Cc4cccnc4)c3)cc2C(F)(F)F)CC1` [XMD15-44]: the remaining binding at 10 µM at KinomeScan kinase panel [1] is 8.7%; on KinomeScan kinase panel [2], 11%; at KinomeScan kinase panel [3] it was 16%; at KinomeScan kinase panel [4], greater than 30%; at KinomeScan kinase panel [5] (kinase RSK1(Kin.Dom.1-N-terminal)), 53%; on KinomeScan kinase panel [5] (kinase RSK1(Kin.Dom.2-C-terminal)) it was 7.2%. The remaining binding at 10 µM on KinomeScan kinase panel [6] was 0.75%; at KinomeScan kinase panel [7], 2.7%; on KinomeScan kinase panel [8], greater than 30%; at KinomeScan kinase panel [9], greater than 30%; on KinomeScan kinase panel [10], greater than 30%; on KinomeScan kinase panel [12], greater than 30%. In addition, the remaining binding at 10 µM at KinomeScan kinase panel [13] was greater than 30%; on KinomeScan kinase panel [14] (kinase TRKB), 1.6%. The “score (%)” value on KinomeScan kinase panel [11] was determined as 0.85%.

For the origin of these results see article PMC4457528, “Identification of Novel Small Molecule Inhibitors of Oncogenic RET Kinase” (PLoS ONE, 2015).
